From patent publication US10420831B2, “Inactivation of viruses by delipidation” (priority 2016, dated 2019)

System: PRRSV-RESP strain
Experiment: In vitro infectivity of PRRSV, plaque titration on Marc-145 cells
Type: cell-based
Details: for In Vitro Infectivity: 60 minutes at 37° C.
Procedure: The PRRSV are titrated for in vitro infectivity using the following procedure. Using the cell culture and transfer procedures above, Marc-145 cells are suspended in DMEM containing 10% FBS at a final density of 1.5×10^5 cell/mL. Two mL of the Marc-145 cell suspension are added to each well of a 6-well plate, and the plates are incubated overnight at 37° C. with 5% CO2. Virus samples are thawed in a 37° C. water bath, followed by centrifugation at 500×g for 10 minutes at 4° C. A 1/10 dilution series of viruses is prepared and stored at 4° C. until use, using EMEM as the dilution buffer.
When the Marc-145 cells are at least 90% confluent, the medium is removed, and 0.5 mL dilution buffer and 0.5 mL of the virus dilution are added into each well. For the negative control, 1.0 mL dilution buffer is used. The plates are gently shaken immediately after each dilution is added. Plates are incubated for 60-90 minutes at 37° C. in 5% CO2 and rocked every 15 minutes. Each well of each 6-well plate is then overlaid with 3 mL of a 1:4 mixture of 2.5% low melting point agarose in PBS solution and dilution buffer at 37° C. The plates are incubated at room temperature for 15 minutes to allow the overlay mixture to solidify, and then the plates are incubated at 37° C. with 5% CO2 for 96 hours.
Plaques are visualized using the following procedure. After the plaques are fully developed (96 hours post-infection), 1 mL 4% paraformaldehyde is added, and the plates are incubated at room temperature for 1 hour. Solubilized agarose is discarded, and 0.5 mL of 0.5% crystal violet is added to each well. The number of plaques is counted after 15 minutes of incubation with the crystal violet and converted to a titer based on the dilution factors.
Solvent and mock treatments are conducted according to the following procedure. One hundred μL aliquots of the concentrated PRRSV stock at about 1×10^9 PFU/mL are diluted into 900 μL PBS in Eppendorf tubes to achieve a final titer of 1.0-5.0×10^8 PFU/mL. […] Eppendorf tubes are then capped and sealed with parafilm. All the samples are secured in an SHZ-82 constant-temperature orbital air-bath shaker (Changzhou Guohua Appliance Co., China) preheated to 37° C. The solvent- and mock-treated samples are spun at an orbital rotation speed of 220 rpm at 37° C. for the desired time. The respective samples are spun in a micro-centrifuge for 1 minute, and the supernatants containing IFV are transferred to ultracentrifuge tubes. Tubes are centrifuged at 100,000×g (OPTIMA™ L-100XP centrifuge; Beckman Coulter, Inc., Indianapolis Ind.) for 30 minutes to pellet the PRRSV, and the supernatants are discarded. The PRRSV pellets are resuspended in 200 μL PBS and stored at −80° C. until further analyses.
The protein content of the delipidated and mock-treated PRRSV is determined using a BCA assay (PIERCE™ BCA Protein Assay Kit) according to the manufacturer's instructions. The cholesterol content also is determined using a cholesterol assay (Amplex® Red Cholesterol Assay Kit, Life Technologies, Grand Island, N.Y.) performed according to manufacturer's instruction. In vitro infectivity is measured using the same procedures as set forth above.
After ultracentrifugation, the mock-treated and delipidated samples are tested for in vitro infectivity in the Marc-145 cells, and protein and cholesterol contents are determined, using the procedures set forth above.

## methyl β-cyclodextrin [MBCD]
100 mM MBCD for 90 minutes
  titer of delipidated PRRSV sample: under the limit of detection
PRRSV-RESP, 5 mM MBCD
  In Vitro Infectivity: 1.4 × 10^7 PFU/mL
PRRSV-RESP, 10 mM MBCD
  In Vitro Infectivity: 7.0 × 10^6 PFU/mL
PRRSV-RESP, 20 mM MBCD
  In Vitro Infectivity: 2.8 × 10^6 PFU/mL
PRRSV-RESP, 30 mM MBCD
  In Vitro Infectivity: 1.2 × 10^5 PFU/mL
PRRSV-RESP, 50 mM MBCD, 60 min at 37° C.
  PRRSV infectivity reduced: about 380 fold
PRRSV-RESP, 50 mM MBCD
  In Vitro Infectivity: 4.2 × 10^4 PFU/mL
